Results on 72 molecules are retold here after ChEMBL document CHEMBL3507680, “University of Dundee, Gates Library screen for HepG2 cell viability”.

The data set in a line: Human HepG2 cell viability assay in 384 well format. Format: toxicity, cell-based. On the set-up: dose 125 nL, time 70.5 hour; cytotoxicity at 70.5 h: concentration not given beside the values. Particulars: HepG2 cells, read-out: Inhibition.
Consider `CCc1ccc(NC(=O)C2OC(c3cccs3)=NN2C(C)=O)cc1` (configuration not stated), for which the cytotoxicity at 70.5 h worked out at 40.2%.

`Cn1ccnc1CCNC(=O)C1CCCN(Cc2cccc(F)c2)C1` (configuration not stated): the cytotoxicity at 70.5 h is -7.53%.

For `COc1ccc2cc(C(=O)NCCNc3ccc(C)nn3)[nH]c2c1`, the cytotoxicity at 70.5 h was -5.63%.

In the case of `CCN(C(=O)c1cccc2c1OCO2)c1ccc(Br)cn1`, the cytotoxicity at 70.5 h was -7.06%.

Regarding `Cc1csc(CN2CC[C@H]3O[C@H](C(=O)Nc4cccnc4)CC[C@H]32)n1`, the cytotoxicity at 70.5 h was found to be 8.96%.

`COc1ccc(CNC(=O)Nc2ccc(S(=O)(=O)C(F)F)cc2)cc1`: the cytotoxicity at 70.5 h is 8.9%.

As to `COc1cccc(-c2nc(CNCc3cccnc3)cs2)c1`, the cytotoxicity at 70.5 h was -17.2%.

Take `O=C(CSc1nnc2n1N=CN(c1ccccc1)C2)c1ccccc1`: the cytotoxicity at 70.5 h is -7.5%.

In the case of `O=C(O)CN1CCC(c2ccccc2)C1` (configuration not stated), the cytotoxicity at 70.5 h was -13.6%.

For the molecule `COCc1cccc(C(=O)N2CCCN(C(=O)OCC(C)C)CC2)c1`, the cytotoxicity at 70.5 h is -5.18%.

Regarding `CS(=O)(=O)NCCCN1CCCC1c1cccc(Br)c1` (configuration not stated), the cytotoxicity at 70.5 h was -9.99%.

Consider `O=C(NC1CCCC1)C1(Cc2cc(C3CCOC3)no2)CCNCC1` (configuration not stated), for which the cytotoxicity at 70.5 h was -5%.

In the case of `COCC1c2c(cnn2C)CCN1C(=O)c1cscn1` (configuration not stated), the cytotoxicity at 70.5 h is -1.37%.

On to `c1csc(C2(NCc3csc(C4CC4)n3)CCCC2)n1`, for which the cytotoxicity at 70.5 h was -7.26%.

With `O=C1NCCCc2[nH]c(Cc3cccc(Cl)c3)nc21`, the cytotoxicity at 70.5 h amounted to 0.226%.

Consider `CCn1cc(S(=O)(=O)N(C)Cc2c(Br)cnn2CC)c(C)n1`, for which the cytotoxicity at 70.5 h was 1.71%.

In the case of `CC(=O)N1[C@H](Cn2cncn2)C[C@@H]2CN(C(=O)NC3CC3)CC[C@@H]21`, the cytotoxicity at 70.5 h was found to be 5.13%.

Turning to `Cc1cc(C)c2[nH]c(=O)c(CN3CCCC4(C3)CN(C)C(=O)O4)cc2c1` (configuration not stated), the cytotoxicity at 70.5 h is -8.68%.

As for `CCN1C(=O)CC(N(C)Cc2nc3ccccc3c(=O)[nH]2)C1=O` (configuration not stated), the cytotoxicity at 70.5 h is -7.75%.

`Cc1cccc2ncnc(N3CCOC(C)C3)c12` (configuration not stated): the cytotoxicity at 70.5 h was found to be 2.61%.

Take `COc1cc(C(=O)NCCCO)cc2occc12`: the cytotoxicity at 70.5 h was -9.45%.

For the molecule `CN1CCN(C(=O)Cn2nc(C(F)(F)F)c(Br)c2C2CC2)CC1`, the cytotoxicity at 70.5 h is -10.9%.

Regarding `CCc1ccc(NC(=O)c2cnc(N3CCCC3)nc2C)cc1`, the cytotoxicity at 70.5 h is -2.19%.

As for `CN(Cc1nnn(CC2CC2)n1)C(=O)c1ccccc1`, the cytotoxicity at 70.5 h came to 32.1%.

For `O=C(CNC1(CCO)CCOCC1)Nc1ccc(F)cc1F`, the cytotoxicity at 70.5 h came out at 10.9%.

As to `CC(C)C(=O)N1CCN(Cc2csc(-c3ncccn3)n2)CC1`, the cytotoxicity at 70.5 h was -2.05%.

For the molecule `COc1cc(CNc2cnn(C)c2)cc2c1OCCO2`, the cytotoxicity at 70.5 h was -4.12%.

As for `CC(C)CCN(C)Cc1nc2c(cnn2C)c(=O)[nH]1`, the cytotoxicity at 70.5 h is -5.91%.

In the case of `CSCC(C)(O)CNC(=O)c1ccc(F)cc1Br` (configuration not stated), the cytotoxicity at 70.5 h is -4.95%.

Turning to `Cc1cnn(CC2CCCCN2C(=O)Cc2c(C)noc2Cl)c1` (configuration not stated), the cytotoxicity at 70.5 h was determined as 24.1%.

Turning to `CCn1ccnc1CN1CCCN(C(=O)c2ccc(C#N)cc2)CC1`, the cytotoxicity at 70.5 h was determined as 0.738%.

As for `COc1ccc(C2CCCN2c2ccc(C#N)cn2)c(OC)c1` (configuration not stated), the cytotoxicity at 70.5 h was 4.11%.

Take `c1ccc(-n2cc(CNC3CCc4ncnn4C3)nn2)cc1` (configuration not stated): the cytotoxicity at 70.5 h is -7.65%.

With `COCCc1noc(CN2CCCC2c2c(C)nn(C)c2OC)n1` (configuration not stated), the cytotoxicity at 70.5 h was -3.49%.

On to `CN(C)c1nccc(N(C)C2CCN(CC3CCOC3)CC2)n1` (configuration not stated), for which the cytotoxicity at 70.5 h is -4.93%.

With `O=C(c1cn(-c2cc(N3CCSCC3)ncn2)cn1)N1CCOCC1`, the cytotoxicity at 70.5 h worked out at 23.9%.

On to `c1ccc(Cn2cccn2)c(CN2CCC3(CCCNC3)C2)c1` (configuration not stated), for which the cytotoxicity at 70.5 h stood at 0.428%.

Turning to `CC(C)c1nnc2sc(CC3CCS(=O)(=O)CC3)nn12`, the cytotoxicity at 70.5 h is -8.54%.

Take `COc1ccc(OC)c([C@@H]2N[C@H](c3nccs3)Cc3ccsc32)c1`: the cytotoxicity at 70.5 h was -11.6%.

On to `Cc1ccc(-c2nnc(C(C)N3CCn4c(C)nnc4C3)o2)cc1` (configuration not stated), for which the cytotoxicity at 70.5 h is -1.43%.

For `CN(C)CCn1nc(C2CCN(S(=O)(=O)N(C)C)C2)c2cccnc21` (configuration not stated), the cytotoxicity at 70.5 h was -3.16%.

For `Cc1nn(CC(=O)N2CCN(Cc3cnn(C)c3C)CC2)cc1Cl`, the cytotoxicity at 70.5 h was -9.22%.

With `Cc1noc(C)c1CNC(=O)NCCOc1ccc(F)cc1F`, the cytotoxicity at 70.5 h was -3.02%.

Turning to `O=C(CCn1cncn1)NCC(c1ccco1)N1CCCC1` (configuration not stated), the cytotoxicity at 70.5 h is -4.48%.

In the case of `CN1CCC2(CCCN(C(=O)c3cncn3C)C2)CC1`, the cytotoxicity at 70.5 h is -7.82%.

Regarding `N#Cc1ccc(NCC(O)c2ccco2)c(C(F)(F)F)c1` (configuration not stated), the cytotoxicity at 70.5 h is -6.87%.

In the case of `CC(C)(C)NS(=O)(=O)c1ccccc1CNCc1cccc(O)c1`, the cytotoxicity at 70.5 h worked out at 3.89%.

As to `COCC(NC(=O)c1ccco1)c1cccc(C(F)(F)F)c1` (configuration not stated), the cytotoxicity at 70.5 h is -3.48%.

Regarding `CC(C)N(C(=O)Cn1nc2n(c1=O)CCCCC2)C1CCC1`, the cytotoxicity at 70.5 h was -9.98%.

Regarding `COc1ccc(-c2cc(CN)nc3ccnn23)cc1`, the cytotoxicity at 70.5 h was -12.4%.

In the case of `CC(Sc1nnc(C2CC2)n1CC(N)=O)c1ccc(F)cc1F` (configuration not stated), the cytotoxicity at 70.5 h is -4.59%.

With `Cc1cc(=O)n2nc(Oc3ccc(F)c(F)c3)sc2n1`, the cytotoxicity at 70.5 h came out at 40.7%.

Take `Cc1ncc2c(n1)CCN(C(C(N)=O)c1ccccc1)C2` (configuration not stated): the cytotoxicity at 70.5 h is -2.66%.

`O=C(NCc1nc(C2CCCCC2)no1)C1CC(=O)N(C2CCCC2)C1` (configuration not stated): the cytotoxicity at 70.5 h was -0.128%.

Take `CC(c1cccc(-c2ncccc2F)c1)N(C)C` (configuration not stated): the cytotoxicity at 70.5 h is -14.8%.

For `CCN(CC)CCNCc1cc(O)c2cc(C)ccc2n1`, the cytotoxicity at 70.5 h was -11.3%.

With `O=C(O)[C@@H]1CN(Cc2c[nH]c(CC3CCCC3)n2)C[C@H]1c1ccncc1`, the cytotoxicity at 70.5 h is -4.68%.

As to `Cc1ccc(-n2c(COCC(=O)O)nc3c(C)cccc32)nc1`, the cytotoxicity at 70.5 h is -4.5%.

As for `Cc1cnn(CCNCc2nc(Cc3ccccc3)no2)c1`, the cytotoxicity at 70.5 h was -5.53%.

For `COc1cc(CNC(C)Cn2cccn2)cc(Cl)c1OC` (configuration not stated), the cytotoxicity at 70.5 h is -4.38%.

As for `CN(C)c1ncccc1C(=O)N1CCc2c(ncn2C2CC2)C1`, the cytotoxicity at 70.5 h was -4.54%.

For `COc1ccc(S(=O)(=O)N2CCn3nc(C)nc3C2)cc1C`, the cytotoxicity at 70.5 h is -5.13%.

With `CC(=O)c1c(C)cc(C)c(Cn2ccnc2S(C)(=O)=O)c1C`, the cytotoxicity at 70.5 h was found to be 6.42%.

On to `O=C(COC[C@@]12CCC[C@@H]1CN(C1CCC1)C2)N1CCCC1`, for which the cytotoxicity at 70.5 h was -9.27%.

With `COCCC(=O)N(CCC#N)c1ccc(C)c(C)c1`, the cytotoxicity at 70.5 h is -3.89%.

Take `Cc1nc(SCC(=O)Nc2ccc(C(N)=O)cc2)c(C#N)c(C)c1C`: the cytotoxicity at 70.5 h came out at 4.83%.

Turning to `O=C(NCc1cccnc1)Nc1cc(C(F)(F)F)c[nH]c1=O`, the cytotoxicity at 70.5 h is -9.57%.

In the case of `CC(NC(=O)CCCC(=O)c1cccs1)c1nnc2n1CCC2` (configuration not stated), the cytotoxicity at 70.5 h is -9.34%.

Consider `Cc1ncsc1CCC(=O)NCc1csc(N2CCCC2)n1`, for which the cytotoxicity at 70.5 h was -6.59%.

Turning to `O=C1COC2(CCN(Cc3ccc(F)cc3)CC2)CN1`, the cytotoxicity at 70.5 h was found to be 3.53%.

For the molecule `O=C(NCC(=O)N1CCCC1Cc1cccc(F)c1)c1ccccn1` (configuration not stated), the cytotoxicity at 70.5 h was -9.78%.

For the molecule `CC(C)c1noc(CN(C)C(=O)c2ccccc2-c2nc[nH]n2)n1`, the cytotoxicity at 70.5 h amounted to 6.97%.
